Literature values as cited in article PMC13584777, “Synthesis, Conformational Analysis, and Evaluation of 6R- and 6S‑Methylmannoimidazoles as Mannosidase Inhibitors” (ACS Omega, 2026).

Molecular target: T1, BtMan2A (Bacteroides thetaiotaomicron, UniProt Q8AAK6)
T1 construct: purchased NZYTech CZ0810
Details: Figure 3, authors' earlier study of the 1-deoxymannojirimycin series

T1 sequence (Q8AAK6 entry or part of it, change not shown): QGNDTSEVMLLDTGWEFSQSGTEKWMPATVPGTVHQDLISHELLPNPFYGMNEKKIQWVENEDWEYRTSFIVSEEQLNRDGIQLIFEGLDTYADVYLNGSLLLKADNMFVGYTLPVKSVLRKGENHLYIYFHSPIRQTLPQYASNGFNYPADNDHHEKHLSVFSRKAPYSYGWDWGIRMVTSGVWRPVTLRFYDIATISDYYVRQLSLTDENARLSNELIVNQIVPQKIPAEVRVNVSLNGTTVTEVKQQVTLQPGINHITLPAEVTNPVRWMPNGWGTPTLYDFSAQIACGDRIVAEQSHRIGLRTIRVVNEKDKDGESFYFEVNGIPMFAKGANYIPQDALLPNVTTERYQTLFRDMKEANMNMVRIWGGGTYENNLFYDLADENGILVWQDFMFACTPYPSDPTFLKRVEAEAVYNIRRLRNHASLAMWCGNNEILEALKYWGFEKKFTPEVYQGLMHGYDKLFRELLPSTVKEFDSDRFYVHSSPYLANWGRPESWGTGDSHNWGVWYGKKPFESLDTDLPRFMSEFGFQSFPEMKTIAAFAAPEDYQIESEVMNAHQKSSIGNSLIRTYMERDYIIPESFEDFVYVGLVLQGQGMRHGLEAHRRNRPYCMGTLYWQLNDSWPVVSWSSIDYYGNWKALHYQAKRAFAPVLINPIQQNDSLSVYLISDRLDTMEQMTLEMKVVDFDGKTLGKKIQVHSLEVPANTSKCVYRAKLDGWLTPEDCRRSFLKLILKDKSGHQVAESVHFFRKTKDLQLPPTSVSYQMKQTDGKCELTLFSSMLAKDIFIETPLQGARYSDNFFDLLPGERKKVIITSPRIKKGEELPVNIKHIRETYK

SMILES	Ki [mM]
C[C@@H](O)[C@H]1NC[C@@H](O)[C@@H](O)[C@@H]1O [compound 1, 6R-methyl-1-deoxymannojirimycin]	14 ± 1
C[C@H](O)[C@H]1NC[C@@H](O)[C@@H](O)[C@@H]1O [compound 2, 6S-methyl-1-deoxymannojirimycin]	1.4 ± 0.2
